How the values were obtained:
Hepatocyte [1] = experiment: Drug metabolism in human hepatocytes assessed as pendant cyclohexyl oxidation; assay type: ADME, cell-based
Hepatitis C virus [2] = experiment: Displacement of [3H]-3-(1-(3-chloro-6-isopropyl-8-(trifluoromethyl)imidazo[1,2-a]pyridine-2-carbonyl)piperidin-4-yl)oxazolidin-2-one from HCV genotype 1b His6-tagged NS4B expressed in baculovirus infected Sf9 cells after overnight incubation; design: species or system Hepatitis C virus subtype 1b
Hepatocyte [3] = experiment: Drug metabolism in rat hepatocytes assessed as pendant cyclohexyl oxidation; assay type: ADME, cell-based
Hepatitis C virus [4] = experiment: Antiviral activity against wild type HCV genotype 1b infected in human HuH7 cells after 48 hrs by luciferase reporter gene assay; assay type: functional, organism-based, Hepacivirus hominis; details: Huh-7, 48 h
Hepatitis C virus [5] = experiment: Antiviral activity against wild type HCV genotype 1a infected in human HuH7 cells after 48 hrs by luciferase reporter gene assay; assay type: functional, organism-based, Hepacivirus hominis; details: subtype 1a, Huh-7, 48 h
[6] = Solubility of the compound; assay type: physicochemical
[7] = AUC (0 to 24 hrs) in Sprague-Dawley rat at 5 mg/kg, po; assay type: ADME, organism-based; design: time < 24 hr, dose 5 mg/kg, route oral; details: plasma
[8] = Volume of distribution at steady state in Sprague-Dawley rat at 1 mg/kg, iv; assay type: ADME, organism-based; design: dose 1 mg/kg, route intravenous; details: in vivo, read-out: Vdss
[9] = Clearance in Sprague-Dawley rat at 1 mg/kg, iv; assay type: ADME, organism-based; design: dose 1 mg/kg, route intravenous; details: in vivo
[10] = Half life in Sprague-Dawley rat at 5 mg/kg, po; assay type: ADME, organism-based; design: dose 5 mg/kg, route oral; details: in vivo
[11] = Oral bioavailability in Sprague-Dawley rat at 5 mg/kg; assay type: ADME, organism-based; details: in vivo
Hepatitis C virus [12] = experiment: Binding affinity to HCV genotype 1b His6-tagged NS4B expressed in baculovirus infected Sf9 cells after overnight incubation; details: Hepatitis C virus subtype 1b, tested as the 3H-labelled form

SMILES	IC50 (Hepatitis C virus [2])	EC50 (Hepatitis C virus [4])	EC50 (Hepatitis C virus [5])	solubility [6]	further results
O=C(c1nc2c(C(F)(F)F)cc(-c3ccoc3)cn2c1Cl)N1CCN(C2CCCCC2)C(=O)C1	5.6 nM	3.5 nM	11 nM	> 500 µM	Drug metabolism (Hepatocyte [1]): Active; Drug metabolism (Hepatocyte [3]): Active
[3H]CC([3H])(C)c1cc(C(F)(F)F)c2nc(C(=O)N3CCC(N4CCOC4=O)CC3)c(Cl)n2c1 (centres undefined)	30 nM				
O=C(c1nc2c(C(F)(F)F)cc(-c3ccoc3)cn2c1Cl)N1CCC(N2C(=O)COC2=O)CC1	35 nM	51 nM	20 nM	> 500 µM	AUC(0-t) at 24 h [7]: 1100 ng·h/mL; Vd [8]: 3.1 L/kg; clearance [9]: 46 mL/min/kg; half-life [10]: 180 min; bioavailability [11]: 60%
O=C(c1nc2c(C(F)(F)F)cc(-c3ccoc3)cn2c1Cl)N1CCC(c2cccs2)CC1	5.3 nM	110 nM	220 nM		
O=C(c1nc2c(C(F)(F)F)cc(-c3ccoc3)cn2c1Cl)N1CCC(c2ccccc2F)C1 (racemic)	5.4 nM	78 nM	680 nM	< 15 µM	
CC1(C)CN(C2CCN(C(=O)c3nc4c(C(F)(F)F)cc(-c5ccoc5)cn4c3Cl)CC2)C(=O)O1	220 nM	76000 nM	9900 nM	> 500 µM	
O=C(c1nc2c(C(F)(F)F)cc(-c3ccoc3)cn2c1Cl)N1CCC(c2ccncc2)C1 (racemic)	25 nM	270 nM	380 nM		
CC(C)c1cc(C(F)(F)F)c2nc(C(=O)N3CCC(N4CCOC4=O)CC3)c(Cl)n2c1		< 55 nM	< 55 nM		Kapp (Hepatitis C virus [12]): 30 nM
O=C(c1nc2c(C(F)(F)F)cc(-c3ccoc3)cn2c1Cl)N1CCN([C@H]2CC[C@H](O)CC2)C(=O)C1	43 nM	9.7 nM	0.9 nM	> 500 µM	
CC1(C)COC(=O)N1C1CCN(C(=O)c2nc3c(C(F)(F)F)cc(-c4ccoc4)cn3c2Cl)CC1	9000 nM	31000 nM	33000 nM	> 500 µM	
O=C(NCc1cccs1)c1cc2nc(-c3ccco3)cc(C(F)(F)Cl)n2n1 [ANGUIZOLE]	22 nM	450 nM	740 nM		

Reference: ChEMBL document CHEMBL2169754, “Imidazo[1,2-a]pyridines That Directly Interact with Hepatitis C NS4B: Initial Preclinical Characterization” (ACS Med Chem Lett, 2012)
